Results reported in the supplement of paper PMC11208160.

Test: recombinant barcode read abundance after kanamycin selection (control-corrected) (log10(CPM+1)); higher = more efficient recombination; sequences stand for … in AGTGCAGAGAAAATCGGCCAGTTTTCTCTGCCTGCAGTCCGCATGCCGT…AGATTTATGCAGCGGACTGCCTTTCTCCCAAAGTGATAAACCGGACAGTATCATGGACCGGTTTTCCCGGTAATCCGTATTTGCAAGGTTGGTTTCACT; site = the 11-nt target
Outline: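 Each value is log10(CPM+1). It describes recombination efficiency, taken as averaged, control-corrected counts per million of barcodes at recombinant junctions. The pooled E. coli library paired targets with IS621 bridge RNA target-binding loops, was co-electroporated with a donor plasmid, and was plated twice on chloramphenicol/ampicillin LB agar (control) and twice on chloramphenicol/ampicillin/kanamycin containing 0.1 mM IPTG.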
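Also: IS621 recombinase and bridge RNA in Escherichia coli cells.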

Sequence	recombinant barcode read abundance (log10)
TCGTGCCCTTGGGTTCTAACCTGTTGCCT (site TCGTGCACTAG)	0.0746
TCGTGCCCTTGGGTTCTAACCTGTTGCCT (site TCGTGCCCTAG)	0.398
TCGTGCCCTTGGGTTCTAACCTGTTGCCT (site TCGTGCGCTAG)	0.165
TCGTGCCCTTGGGTTCTAACCTGTTGCCT (site TCGTGCTCTAG)	0.0522
TCGTTCGCTTGGGTTCTAACCTGTTGCCG (site GTCAGATCTAA)	0.37
TCGTTCGCTTGGGTTCTAACCTGTTGCCG (site TCGTTCGCTCG)	0.0881
TCTAAACCTTGGGTTCTAACCTGTTGCAT (site TCTAAACCTAT)	0.197
TCTAAACCTTGGGTTCTAACCTGTTGCAT (site TCTAACCCTAT)	0.142
TCTAAACCTTGGGTTCTAACCTGTTGCAT (site TCTAAGCCTAT)	0.0795
TCTAAACCTTGGGTTCTAACCTGTTGCAT (site TCTAATCCTAT)	0.229
TCTAAGACTTGGGTTCTAACCTGTTGCGC (site CTACCCTCTAG)	0.0242
TCTAAGACTTGGGTTCTAACCTGTTGCGC (site TCTAAGACTGC)	1.26
TCTAAGCCTTGGGTTCTAACCTGTTGCAT (site TCTAAACCTAT)	0.152
TCTAAGCCTTGGGTTCTAACCTGTTGCAT (site TCTAACCCTAT)	0.259
TCTAAGCCTTGGGTTCTAACCTGTTGCAT (site TCTAAGCCTAT)	0.531
TCTAAGCCTTGGGTTCTAACCTGTTGCAT (site TCTAATCCTAT)	0.0292
TCTACCTCTTGGGTTCTAACCTGTTGCCT (site TCTACATCTAG)	0.0227
TCTACCTCTTGGGTTCTAACCTGTTGCCT (site TCTACCTCTAG)	1.19
TCTACCTCTTGGGTTCTAACCTGTTGCCT (site TCTACGTCTAG)	0.102
TCTACCTCTTGGGTTCTAACCTGTTGCCT (site TCTACTTCTAG)	0.0484
TCTACGTCTTGGGTTCTAACCTGTTGCCT (site TCTACATCTAG)	0.0403
TCTACGTCTTGGGTTCTAACCTGTTGCCT (site TCTACCTCTAG)	0.00686

Sequence	recombinant barcode read abundance (log10)
TCTACGTCTTGGGTTCTAACCTGTTGCCT (site TCTACGTCTAG)	0.168
TCTACGTCTTGGGTTCTAACCTGTTGCCT (site TCTACTTCTAG)	0.126
TCTCACCCTTGGGTTCTAACCTGTTGCCT (site TCTCACCCTAG)	0.516
TCTCACCCTTGGGTTCTAACCTGTTGCCT (site TCTGATCCTAG)	0.0773
TCTCATTCTTGGGTTCTAACCTGTTGCGT (site TCTAATTCTAC)	0.0146
TCTCATTCTTGGGTTCTAACCTGTTGCGT (site TCTCATTCTAC)	0.937
TCTCATTCTTGGGTTCTAACCTGTTGCGT (site TCTGATTCTAC)	0.163
TCTCATTCTTGGGTTCTAACCTGTTGCGT (site TCTTATTCTAC)	0.0829
TCTCCGCCTTGGGTTCTAACCTGTTGCCT (site TCTCAGCCTAG)	0.139
TCTCCGCCTTGGGTTCTAACCTGTTGCCT (site TCTCCGCCTAG)	0.431
TCTCCGCCTTGGGTTCTAACCTGTTGCCT (site TCTCGGCCTAG)	0.0901
TCTCCGCCTTGGGTTCTAACCTGTTGCCT (site TCTCTGCCTAG)	0.0964
TCTCGATCTTGGGTTCTAACCTGTTGCAT (site CCTCGATCTAT)	0.0525
TCTCGATCTTGGGTTCTAACCTGTTGCAT (site TCTCGATCTAT)	0.273
TCTCGTCCTTGGGTTCTAACCTGTTGCTA (site AGCAACACTCT)	0.226
TCTCGTCCTTGGGTTCTAACCTGTTGCTA (site TCTCGTCCTTA)	0.0623
TCTCTGCCTTGGGTTCTAACCTGTTGCCT (site TCTCAGCCTAG)	0.277
TCTCTGCCTTGGGTTCTAACCTGTTGCCT (site TCTCCGCCTAG)	1.15
TCTCTGCCTTGGGTTCTAACCTGTTGCCT (site TCTCGGCCTAG)	0.108
TCTCTGCCTTGGGTTCTAACCTGTTGCCT (site TCTCTGCCTAG)	0.208
TCTGAAACTTGGGTTCTAACCTGTTGCTT (site GACACCTCTCG)	0.0724
TCTGAAACTTGGGTTCTAACCTGTTGCTT (site TCTGAAACTAA)	0.314

Sequence	recombinant barcode read abundance (log10)
TCTGAGGCTTGGGTTCTAACCTGTTGCTG (site TCAGAGGCTCA)	0.263
TCTGAGGCTTGGGTTCTAACCTGTTGCTG (site TCCGAGGCTCA)	0.129
TCTGAGGCTTGGGTTCTAACCTGTTGCTG (site TCGGAGGCTCA)	0.0364
TCTGAGGCTTGGGTTCTAACCTGTTGCTG (site TCTGAGGCTCA)	0.455
TCTGCGACTTGGGTTCTAACCTGTTGCCT (site TCAGCGACTAG)	0.0737
TCTGCGACTTGGGTTCTAACCTGTTGCCT (site TCCGCGACTAG)	0.455
TCTGCGACTTGGGTTCTAACCTGTTGCCT (site TCGGCGACTAG)	0.114
TCTGCGACTTGGGTTCTAACCTGTTGCCT (site TCTGCGACTAG)	0.265
TCTGGGGCTTGGGTTCTAACCTGTTGCCT (site ACTGGGGCTTG)	0.0588
TCTGGGGCTTGGGTTCTAACCTGTTGCCT (site TCTGGGGCTAG)	0.0357
TCTGGGGCTTGGGTTCTAACCTGTTGCGG (site TCTGGGGCTCA)	0.376
TCTGGGGCTTGGGTTCTAACCTGTTGCGG (site TCTGGGGCTCC)	2.61
TCTGGGGCTTGGGTTCTAACCTGTTGCGG (site TCTGGGGCTCG)	0.271
TCTGGGGCTTGGGTTCTAACCTGTTGCGG (site TCTGGGGCTCT)	2.22
TCTGTAACTTGGGTTCTAACCTGTTGCCT (site CAATCCTCTTA)	0.183
TCTGTAACTTGGGTTCTAACCTGTTGCCT (site TCTGTAACTAG)	0.421
TCTGTGTCTTGGGTTCTAACCTGTTGCTA (site ATATCAACTCG)	0.0225
TCTGTGTCTTGGGTTCTAACCTGTTGCTA (site TCTGTGTCTTA)	1.46
TCTTATACTTGGGTTCTAACCTGTTGCAT (site TCTTATACTAC)	0.0107
TCTTATACTTGGGTTCTAACCTGTTGCAT (site TCTTATACTAT)	0.186
TCTTGACCTTGGGTTCTAACCTGTTGCTT (site GGCACCACTCG)	0.063
TCTTGACCTTGGGTTCTAACCTGTTGCTT (site TCTTGACCTAA)	0.242
